# Results: patent US11628172B2, “Methods of treating chronic lymphocytic leukemia using 2-(2,6-dioxopiperidin-3-yl)-4-((2-fluoro-4-((3-morpholinoazetidin-1-yl)methyl)benzyl)amino)isoindoline-1,3-dione” (Celgene Corporation, priority 2019, dated 2023)
# Key:
# WA-OSEL CLL cell line = assay: Cell proliferation and viability assay (384-well flow cytometry, Annexin V/DRAQ7), WA-OSEL; format: cell-based; conditions: 120 hours
# Protocol: (§1) The following are examples of cell-based assays that can be used to determine the anti-proliferative activity and apoptotic effect of compounds described herein using exemplary CLL cell lines (Table 3). The in vitro growth inhibitory activity of Compound 1 described herein was evaluated using a 384-well flow cytometry assay.
# (§2) The cell lines were plated under the conditions shown in Table 3 in 384-well flat bottom plates and incubated with increasing concentrations of compound ranging from 0.00015 to 10 μM or dimethyl sulfoxide (DMSO) control. The final concentration of DMSO was 0.1% (v/v). Following the addition of Compound 1 or DMSO and incubation for 120 hours, cell number and cell death were analyzed by flow cytometry (Attune®, Thermo Fisher) using Annexin V and the live-cell impermeant DNA dye, DRAQ7. […]
# (§3) Flow cytometry data analysis was then performed using the Flow Jo_v10 software to determine the number of viable cells (Annexin V and DRAQ7 double negative staining cells) and percentage of apoptotic cells (Annexin V positive cells) for each condition. […] The IC50 (50% inhibitory concentration) and Emax (maximum efficacy achieved) values were then calculated by performing nonlinear regression curve fitting using log (inhibitor) vs. normalized response—variable slope analysis on GraphPad Prism 7.03. […]
# CI CLL cell line = assay: Cell proliferation and viability assay (384-well flow cytometry, Annexin V/DRAQ7), CI; format: cell-based; conditions: 120 hours
# Protocol: as §1, §2, §3
# Mec1 CLL cell line = assay: Cell proliferation and viability assay (384-well flow cytometry, Annexin V/DRAQ7), Mec1; format: cell-based; conditions: 120 hours
# Protocol: as §1, §2, §3
# HG3 CLL cell line = assay: Cell proliferation and viability assay (384-well flow cytometry, Annexin V/DRAQ7), HG3; format: cell-based; conditions: 120 hours
# Protocol: as §1, §2, §3
# [1] = tested on: primary CLL cells from patient-derived blood (CD5+CD19+ tumor cells); assay: Compound 1 in combination with obinutuzumab in B-cell CLL patient cells (ex vivo co-culture, flow cytometry, Caspase3); format: cell-based, human; conditions: single agent (Cpd1 DRC with DMSO, or obinutuzumab alone), 144 h, apoptosis (Caspase 3), DMSO baseline subtracted
# Protocol: Obinutuzumab (GA101) is a humanized, glycoengineered type 2 antibody targeted against CD20. […] The effect of treatment with Compound 1 in combination with obinutuzumab on the proliferation and survival of CLL B cells was assessed utilizing an ex vivo model where primary CLL cells from patient-derived blood were stimulated to proliferate with 10% fetal bovine serum (FBS), 5 ng/mL recombinant human interleukine-4 (rh IL-4), 10 ng/mL recombinant human interleukine-10 (rh IL-10) and co-cultured with fibroblast expressing surface CD154 (CD40L) in a 96 well plate format.
# Peripheral blood mononuclear cells (PBMCs) from CLL patients (Table 7) containing 52%-86% of CD5^+CD19^+ tumor cells were cultured at a density of 0.06-0.1×10^6 cells/well on a monolayer of CD154-expressing fibroblasts at a density of 0.09×10^6 cells/well in 96-well plates in RPMI 1640 medium supplemented with 10% FBS, 5 ng/mL rh IL-4 and 10 ng/mL rh IL-10. The cells were treated with vehicle control (0.1% DMSO) or increasing concentrations of Compound 1 ranging from 0.0001 to 1 μM and GA101 at concentrations ranging from 8 ng/mL to 5 ug/mL across all the different concentrations of Compound 1. After 144 h of treatment with both the agents, flow cytometric analysis was used to determine the number of tumor cells that were viable or apoptotic.
# The tumor cell count was assessed by staining the patient PBMCs in each condition with tumor cell surface markers CD5 & CD19 along with Live/Dead fixable dye to exclude the dead cells and followed by intracellular staining for Caspase3 antibody to identify the apoptotic cells and was measured by flow cytometry (Attune NxT, Thermo Fisher). The live tumor cell count for each condition was calculated by normalizing to the precision count beads added to each sample.
# The live tumor cell count was then normalized to the DMSO control (considered as 100% viable) to calculate the percentage of viable cells remaining after treatment. The normalized percentage of tumor cells was then represented as a heat map using Graph Pad Prism 8.0.0 to indicate the degree of tumor toxicity for each of the combinations (FIG. 1). Based on the data shown in FIG. 1, synergy/additivity calculations were performed using the HSA and Bliss Independence Model.
# For apoptosis analysis, the percentage of apoptosis combining both “early” (Caspase 3 positive and Live-Dead fixable dye negative) and “late” apoptosis (Caspase 3 and Live-Dead fixable dye positive) cell gates subtracting the baseline DMSO value was graphed using GraphPad Prism 8.0.0.0. The Ymax (maximal percentage of apoptosis achieved) values from apoptosis curves were calculated by performing a nonlinear regression curve fitting using log(agonist) vs. normalized response—Variable slope analysis and identifying the maximum value on GraphPad Prism 8.0.0 (Table 8).
# WA-C3-CD5+ CLL cell line = assay: Cell proliferation and viability assay (384-well flow cytometry, Annexin V/DRAQ7), WA-C3-CD5+; format: cell-based; conditions: 120 hours
# Protocol: as §1, §2, §3
# Mec2 CLL cell line = assay: Cell proliferation and viability assay (384-well flow cytometry, Annexin V/DRAQ7), Mec2; format: cell-based; conditions: 120 hours
# Protocol: as §1, §2, §3
smiles,measurement,setting,value
"O=C1CC[C@H](N2C(=O)c3cccc(NCc4ccc(CN5CC(N6CCOCC6)C5)cc4F)c3C2=O)C(=O)N1 [Compound 1, (S)-2-(2,6-dioxopiperidin-3-yl)-4-((2-fluoro-4-((3-morpholinoazetidin-1-yl)methyl)benzyl)amino)isoindoline-1,3-dione]",% Viable Cells Emax (percentage of tumor cells remaining),WA-OSEL CLL cell line,54.42%
same,% Viable Cells Emax (percentage of tumor cells remaining),CI CLL cell line,53.58%
same,% Viable Cells Emax (percentage of tumor cells remaining),Mec1 CLL cell line,83.45%
same,% Viable Cells Emax (percentage of tumor cells remaining),HG3 CLL cell line,59.58%
same,Ymax of Pt 11 (%),[1]; Pt 11,18.81%
same,Ymax of Pt 12 (%),[1]; Pt 12,19.11%
same,Ymax of Pt 13 (%),[1]; Pt 13,29.40%
same,Ymax of Pt 14 (%),[1]; Pt 14,24.11%
same,% Viable Cells Emax (percentage of tumor cells remaining),WA-C3-CD5+ CLL cell line,44.2%
same,% Viable Cells Emax (percentage of tumor cells remaining),Mec2 CLL cell line,25.55%
